Literature values in patent publication US20060018842A1, “Composition and method for delivery of phytochemicals” (priority 2004, published 2006).
“Also recorded” adds a separate entry of the source.

Test system: microorganisms named in the source
Details: not given

Compound	Activity
COc1cc(CNC(=O)CCCC/C=C/C(C)C)ccc1O [Capesicin]	Bacteria

Same assay, conditions: organisms against which activity was observed; General = general antimicrobial

Compound	Activity
Cc1ccc(C(C)C)cc1O [Carvacrol]	General
C=C1C=CC(=O)O1 [Protoanemonia]	General
CC(C)=CCc1cc([C@@H]2CC(=O)c3ccc(O)c(CC=C(C)C)c3O2)ccc1O [Glabrol]	S. aureus, M. tuberculosis
C=CCSSC=CC[S+]([O-])CC=C (mixture of isomers) [ajoene]	General
C=C1C(=O)[C@]23C[C@H]1C[C@@H](O)[C@H]2[C@@]1(CCCC(C)(C)[C@H]1C=O)COC3=O [Trichorabdal A]	Helicobacter pylori
O=C(CO)[C@@H](O)[C@H](O)[C@H](O)CO [Fructose]	E. coli; also recorded: Bacteria
COc1cc(CCN)cc(OC)c1OC [Mascaline]	General
Catechin	General; also recorded: Shigella; also recorded: Vibrio; also recorded: S. mutans; also recorded: Viruses
O=C1C=C(O)C(=O)c2ccccc21 [Lawsone]	M. tuberculosis
COc1ccc2c(c1OC)C(=O)O[C@@H]2[C@H]1c2cc3c(cc2CCN1C)OCO3 [hydrastine]	Bacteria, Giardia duodenals,; also recorded: trypanosomes; also recorded: Platmodia
COc1ccc2cc3[n+](cc2c1OC)CCc1cc2c(cc1-3)OCO2 [Berberine]	Plasmodium; also recorded: Trypansomea, general; also recorded: Bacteria, protozoa; also recorded: Bacteria, Giardia duodenals,; also recorded: trypanosomes; also recorded: Platmodia
CC1(C)C=Cc2c(cc3occ(-c4ccc(O)cc4)c(=O)c3c2O)O1 [Alpinumisoflavone]	Schiatosome
O=C(O)c1cc(O)c(O)c(O)c1 [Gallic acid]	S. aureus
O=C(CCc1ccc(O)cc1)c1c(O)cc(O)cc1O [Phloretin]	General
Asiatocoside	M. leprae
C=CCS[S+]([O-])CC=C (stereo not drawn) [Allicin]	Bacteria, Candida; also recorded: General
CC(Cc1ccc(O)c(O)c1)C(C)Cc1ccc(O)c(O)c1 (stereo not drawn) [Nordihydrogual-aretic acid]	Skin bacteria

Compound	Activity
C/C(=C\CC[C@H](C)[C@@H]1CC[C@]2(C)C3=CC[C@H]4C(C)(C)C(=O)CC[C@]4(C)[C@H]3CC[C@@]12C)C(=O)O [Terebinthone]	General
Anthemic acid	M. tuberculosis, S. typhi-; also recorded: murium, S. aureus,; also recorded: holminths
Helanine	General
C=C[C@H]1CN2CC[C@H]1C[C@H]2[C@H](O)c1ccnc2ccc(OC)cc12 [Quiniae, reference compound]	Plasmodium spp.
COc1cc2c(c(OC)c1OC)-c1ccc(OC)c(=O)cc1[C@@H](NC(C)=O)CC2 [Colchicines, reference compound]	General
CC1=C(CO)C(=O)O[C@@H]([C@@H](C)[C@H]2CC[C@H]3[C@@H]4C[C@H]5O[C@]56[C@@H](O)C=CC(=O)[C@]6(C)[C@H]4CC[C@]23C)C1 [Withafarin A]	Bacteria, fungi
Pebatin	Bacteria
O=C(O)c1ccc(O)cc1O [β-Resorcyclic acid]	Bacteria and viruses
CC1CCC(C(C)C)C(O)C1 (stereo not drawn) [Menthol, reference compound]	General
C=CCc1ccc(O)c(OC)c1 [Eugonol]	General
COC(=O)[C@H]1[C@H]2C[C@@H]3c4[nH]c5cc(OC)ccc5c4CCN3C[C@H]2C[C@@H](OC(=O)c2cc(OC)c(OC)c(OC)c2)[C@@H]1OC [Roserpine, reference compound]	General
CC(C)=CCc1cc(O)c(O)c(CC=C(C)C)c1[C@H]1Oc2c(CC=C(C)C)c(O)cc(O)c2C(=O)[C@@H]1O [Petalostemumol]	Bacteria, fungi
O=C(/C=C/C=C/c1ccc2c(c1)OCO2)N1CCCCC1 [Piperdine]	Fungi, Lactobacillus,; also recorded: Micrococcus, E. coli; also recorded: E. facecalis
Caffaio acids	Viruses, holminths
CC(C)=CCC1=C(O)C(C(=O)CC(C)C)=C(O)C(CC=C(C)C)(CC=C(C)C)C1=O [Lupulone]	General
Hexemal	General

Test system: oral carcinoma cell line (KB)
Details: features of caspase-3-mediated apoptosis

Compound	Cytotoxicity
CCCCCCCC(=O)CCc1ccc(O)c(OC)c1 [[6]-paradol]	dose-dependent cytotoxicity

Same assay, conditions: incubated for 48 h

Compound	Viable KB cells, % of untreated control
CCCCCCCC(=O)CCc1ccc(O)c(OC)c1 [[6]-paradol]	less than 50%

Test system: mouse skin
Details: not given

Compound	Protection from tumor inducing agent
CCCCCCCC(=O)CCc1ccc(O)c(OC)c1 [[6]-paradol]	protected mouse skin from a tumor inducing agent

Test system: human breast cancer xenografts
Details: mice

Compound	Growth and metastasis of xenografts
COc1cc(/C=C/C(=O)CC(=O)/C=C/c2ccc(O)c(OC)c2)ccc1O [curcumin]	reduce the growth and metastasis

Test system: oral cancer cell line KB-1
Details: key protein for gap junction formation

Compound	Induction of connexin 43
CC(C)=CCC/C(C)=C/C=C/C(C)=C/C=C/C(C)=C/C=C/C=C(C)/C=C/C=C(C)/C=C/C=C(\C)CCC=C(C)C [lycopene]	specifically induced

Same assay, conditions: physiological lycopene concentrations

Compound	KB-1 cells, % of control cell numbers
CC(C)=CCC/C(C)=C/C=C/C(C)=C/C=C/C(C)=C/C=C/C=C(C)/C=C/C=C(C)/C=C/C=C(\C)CCC=C(C)C [lycopene]	approximately 10%

Test system: breast cancer cell line MCF7
Details: not given

Compound	IGF-1 stimulated proliferation
CC(C)=CCC/C(C)=C/C=C/C(C)=C/C=C/C(C)=C/C=C/C=C(C)/C=C/C=C(C)/C=C/C=C(\C)CCC=C(C)C [lycopene]	blocked IGF-1 stimulated proliferation

Test system: oral cancer
Details: not given

Compound	Apoptosis
O=C(/C=C/c1ccc(O)c(O)c1)O[C@@H]1C[C@](O)(C(=O)O)C[C@@H](O)[C@H]1O [CGA, chlorogenic acid]	induced caspase-3-dependent apoptosis

Test system: transformed cells
Details: by activating apoptosis

Compound	Growth inhibition
epigallocatechin-3-gallate [EGCG]	induce growth inhibition

Test system: normal cell
Details: not given

Compound	Normal cell growth
epigallocatechin-3-gallate [EGCG]	not affected

Test system: oral squamous carcinoma cells
Details: not given

Compound	Apoptosis
epigallocatechin-3-gallate [EGCG]	induce apoptosis

Test system: normal human epidermal keratinocytes
Details: not given

Compound	Survival
epigallocatechin-3-gallate [EGCG]	survive

Test system: oral squamous cell carcinoma (OSCC) cells
Details: oral tumor cells

Compound	Selectivity of cytotoxicity
COc1ccc2c3c1O[C@H]1C(=O)C=C[C@H]4[C@@H](C2)N(C)CC[C@]314 [codeinone]	selectively higher in oral tumor cells

Same assay, conditions: targets the mitochondria

Compound	Apoptosis
COc1ccc2c3c1O[C@H]1C(=O)C=C[C@H]4[C@@H](C2)N(C)CC[C@]314 [codeinone]	caspase-3-dependent apoptosis
